Targets include Cathepsin B (Homo sapiens, UniProt P07858); Procathepsin L (Homo sapiens, UniProt P07711); Cathepsin D (Homo sapiens, UniProt P07339).
The target in a further data set is Papain (Carica papaya, UniProt P00784). The experiment in a line: The apparent binding affinity against Papain. The conditions noted are these: read-out: Ki app.
Data set [1] is described as follows: Cmax value of the compound. Format: ADME, organism-based. As to conditions: in vivo.
A further data set has as its target Plasmepsin I (Plasmodium falciparum, UniProt P39898). As to the kind of experiment: Inhibitory concentration for Plasmodium falciparum plasmepsin-1.
The target in data set [2] is Plasmepsin II (Plasmodium falciparum) (UniProt P46925). As to the kind of experiment: Inhibition of Plasmodium falciparum plasmepsin-2 at 10 uM.
Plasmepsin II (Plasmodium falciparum), sequence (P46925 125-453 limits assumed): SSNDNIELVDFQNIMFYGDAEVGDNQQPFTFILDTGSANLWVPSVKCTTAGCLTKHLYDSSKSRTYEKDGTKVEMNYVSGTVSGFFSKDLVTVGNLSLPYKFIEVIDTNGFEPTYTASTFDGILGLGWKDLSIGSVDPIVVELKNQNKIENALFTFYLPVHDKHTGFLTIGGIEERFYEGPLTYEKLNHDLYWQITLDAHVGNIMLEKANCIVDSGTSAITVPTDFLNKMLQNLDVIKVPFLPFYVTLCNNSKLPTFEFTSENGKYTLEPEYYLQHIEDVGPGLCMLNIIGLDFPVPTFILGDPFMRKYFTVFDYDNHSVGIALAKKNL
A short description of data set [3]: Inhibitory concentration against the live parasite in preventing hemoglobin degradation. Format: functional.
The species named for a further data set is Homo sapiens. As to the kind of experiment: Half life in humans. Format: ADME, organism-based. As to conditions: in vivo.
In a further data set the target is Caspase-3 (Homo sapiens, UniProt P42574). As to the kind of experiment: Inhibitory activity against caspase-3.
Caspase-3, sequence (P42574 29-175 limits assumed): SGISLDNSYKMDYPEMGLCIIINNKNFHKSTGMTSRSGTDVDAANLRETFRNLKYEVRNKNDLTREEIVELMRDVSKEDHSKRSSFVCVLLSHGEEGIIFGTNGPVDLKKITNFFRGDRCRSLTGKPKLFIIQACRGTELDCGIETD
Caspase-3, sequence (P42574 176-277 limits assumed): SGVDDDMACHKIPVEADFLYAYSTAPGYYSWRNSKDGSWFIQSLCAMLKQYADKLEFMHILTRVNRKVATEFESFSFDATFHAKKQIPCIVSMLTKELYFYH
Another data set concerns the target T1, Caspase-1 (Homo sapiens, UniProt P29466).
T1 sequence (P29466 whole entry): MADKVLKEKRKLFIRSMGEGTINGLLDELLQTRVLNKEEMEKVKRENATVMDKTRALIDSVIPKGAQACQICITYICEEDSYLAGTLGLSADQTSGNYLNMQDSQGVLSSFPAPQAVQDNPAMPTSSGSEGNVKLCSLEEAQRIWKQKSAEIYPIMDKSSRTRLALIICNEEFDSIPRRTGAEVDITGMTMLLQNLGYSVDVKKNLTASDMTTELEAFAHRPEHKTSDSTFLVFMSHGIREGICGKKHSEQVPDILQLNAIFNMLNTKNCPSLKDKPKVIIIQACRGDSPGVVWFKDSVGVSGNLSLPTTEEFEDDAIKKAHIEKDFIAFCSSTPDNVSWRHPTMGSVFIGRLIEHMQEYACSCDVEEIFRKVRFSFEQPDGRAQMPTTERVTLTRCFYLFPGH

Data set [4] can be described thus: Binding affinity against plasmepsin. Further details: species or system Plasmodium falciparum.
The nature of data set [5]: Partition coefficient (logP). Format: physicochemical. As to conditions: octanol/water; read-out: logP.
The target of data set [6] is T2, Human rhinovirus A protease (Human rhinovirus sp., UniProt Q4U254).
T2 sequence (Q4U254 whole entry): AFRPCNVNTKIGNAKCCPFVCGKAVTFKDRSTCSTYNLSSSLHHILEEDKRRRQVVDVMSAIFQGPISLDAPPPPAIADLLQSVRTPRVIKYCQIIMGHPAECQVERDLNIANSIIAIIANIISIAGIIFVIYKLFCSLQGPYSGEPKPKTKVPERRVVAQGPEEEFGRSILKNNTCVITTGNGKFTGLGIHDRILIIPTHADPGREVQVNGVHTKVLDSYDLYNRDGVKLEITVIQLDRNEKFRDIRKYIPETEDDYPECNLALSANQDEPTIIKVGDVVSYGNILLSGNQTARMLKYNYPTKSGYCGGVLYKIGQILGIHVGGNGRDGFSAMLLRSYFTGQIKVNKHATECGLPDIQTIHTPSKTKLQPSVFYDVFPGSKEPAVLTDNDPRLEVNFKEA
As to the kind of experiment: Effective concentration against human rhinovirus 3C protease.

Another data set has as its target Neutrophil collagenase (Homo sapiens, UniProt P22894). The experiment in a line: Inhibition of matrix metalloprotease-8 (MMP-8).
Data set [7] deals with 72 kDa type IV collagenase (Homo sapiens, UniProt P08253).
72 kDa type IV collagenase, sequence (P08253 whole entry): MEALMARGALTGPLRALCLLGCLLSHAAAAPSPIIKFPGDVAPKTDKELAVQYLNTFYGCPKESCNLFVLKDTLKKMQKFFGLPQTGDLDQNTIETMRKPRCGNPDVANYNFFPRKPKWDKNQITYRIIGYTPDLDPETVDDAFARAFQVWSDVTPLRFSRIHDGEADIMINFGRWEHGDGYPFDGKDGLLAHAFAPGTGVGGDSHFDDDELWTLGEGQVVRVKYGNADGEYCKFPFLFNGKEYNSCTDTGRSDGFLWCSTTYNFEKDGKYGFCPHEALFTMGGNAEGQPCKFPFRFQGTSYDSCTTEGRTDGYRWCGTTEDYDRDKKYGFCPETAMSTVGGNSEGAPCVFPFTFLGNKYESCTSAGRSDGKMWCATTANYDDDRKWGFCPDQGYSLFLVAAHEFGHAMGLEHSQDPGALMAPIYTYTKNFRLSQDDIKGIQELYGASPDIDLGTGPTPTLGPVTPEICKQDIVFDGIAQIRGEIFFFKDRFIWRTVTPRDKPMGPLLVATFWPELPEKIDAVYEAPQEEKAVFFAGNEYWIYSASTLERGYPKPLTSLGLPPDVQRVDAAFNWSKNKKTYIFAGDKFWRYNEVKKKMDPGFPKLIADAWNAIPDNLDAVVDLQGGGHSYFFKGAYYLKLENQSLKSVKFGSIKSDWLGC
Data set [8] addresses Matrix metalloproteinase-9 (Homo sapiens, UniProt P14780).
The target of another data set is Plasmepsin II (Plasmodium falciparum, UniProt P46925). The experiment in a line: Inhibitory concentration for Plasmodium falciparum plasmepsin-2.
Plasmepsin II, sequence (P46925 whole entry, the tested form may be a part): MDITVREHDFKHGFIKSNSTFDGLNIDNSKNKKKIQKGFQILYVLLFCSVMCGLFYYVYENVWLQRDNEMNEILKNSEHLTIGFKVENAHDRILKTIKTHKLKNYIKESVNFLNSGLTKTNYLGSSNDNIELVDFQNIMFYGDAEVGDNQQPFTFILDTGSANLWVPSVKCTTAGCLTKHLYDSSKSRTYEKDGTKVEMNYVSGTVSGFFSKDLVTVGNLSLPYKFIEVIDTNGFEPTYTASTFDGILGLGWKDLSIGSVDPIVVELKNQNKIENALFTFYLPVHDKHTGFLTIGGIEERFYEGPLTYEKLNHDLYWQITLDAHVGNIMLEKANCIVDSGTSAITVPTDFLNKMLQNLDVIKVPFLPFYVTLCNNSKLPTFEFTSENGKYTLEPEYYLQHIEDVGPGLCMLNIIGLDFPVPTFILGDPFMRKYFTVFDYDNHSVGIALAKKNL
The target of data set [9] is T3, Disintegrin and metalloproteinase domain-containing protein 17 (Homo sapiens, UniProt P78536). As to the kind of experiment: Inhibition against Tumor necrosis factor alpha-converting enzyme (TACE) at 1 uM in human monocytes. Format: cell-based.
T3 sequence (P78536 whole entry, the tested form may be a part): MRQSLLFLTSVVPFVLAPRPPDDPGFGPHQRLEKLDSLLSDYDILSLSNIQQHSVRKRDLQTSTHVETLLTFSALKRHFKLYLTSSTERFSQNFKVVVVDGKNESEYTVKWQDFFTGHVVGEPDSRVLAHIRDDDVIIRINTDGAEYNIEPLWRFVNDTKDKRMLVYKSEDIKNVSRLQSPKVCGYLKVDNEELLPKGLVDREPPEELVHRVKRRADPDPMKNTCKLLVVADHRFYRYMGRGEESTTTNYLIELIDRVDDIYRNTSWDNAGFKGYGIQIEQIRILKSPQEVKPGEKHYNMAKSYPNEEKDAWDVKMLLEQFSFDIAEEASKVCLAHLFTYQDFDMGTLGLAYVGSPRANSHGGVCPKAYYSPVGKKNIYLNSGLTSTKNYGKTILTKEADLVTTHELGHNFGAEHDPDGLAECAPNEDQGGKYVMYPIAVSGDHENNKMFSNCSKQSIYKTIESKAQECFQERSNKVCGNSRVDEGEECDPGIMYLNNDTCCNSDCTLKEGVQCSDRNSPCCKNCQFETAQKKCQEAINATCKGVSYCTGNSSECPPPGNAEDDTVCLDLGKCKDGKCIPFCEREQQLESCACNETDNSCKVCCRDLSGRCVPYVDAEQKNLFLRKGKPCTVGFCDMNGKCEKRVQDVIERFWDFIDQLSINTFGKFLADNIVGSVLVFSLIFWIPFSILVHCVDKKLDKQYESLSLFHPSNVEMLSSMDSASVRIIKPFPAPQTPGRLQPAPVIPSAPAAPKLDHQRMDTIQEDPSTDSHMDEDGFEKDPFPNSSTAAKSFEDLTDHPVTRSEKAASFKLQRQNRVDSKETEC
For data set [10], the target named is T3, Disintegrin and metalloproteinase domain-containing protein 17. The experiment in a line: Inhibitory activity against Tumor necrosis factor alpha-converting enzyme (TACE) with respect to matrix metalloprotease-1 (MMP-1).

Neutrophil collagenase, sequence (P22894 whole entry): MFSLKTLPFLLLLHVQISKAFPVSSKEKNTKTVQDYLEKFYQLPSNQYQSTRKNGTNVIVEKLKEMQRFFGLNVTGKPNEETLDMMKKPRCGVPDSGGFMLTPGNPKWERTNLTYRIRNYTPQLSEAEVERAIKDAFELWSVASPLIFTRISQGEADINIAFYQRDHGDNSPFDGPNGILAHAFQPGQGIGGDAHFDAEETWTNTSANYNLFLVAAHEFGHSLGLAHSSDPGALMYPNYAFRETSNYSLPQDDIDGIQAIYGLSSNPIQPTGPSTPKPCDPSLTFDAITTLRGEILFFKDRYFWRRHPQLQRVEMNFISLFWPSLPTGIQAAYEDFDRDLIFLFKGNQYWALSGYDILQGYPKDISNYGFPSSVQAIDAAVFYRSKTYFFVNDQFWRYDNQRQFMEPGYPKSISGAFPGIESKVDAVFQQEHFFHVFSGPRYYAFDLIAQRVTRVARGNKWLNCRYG
Papain, sequence (P00784 whole entry): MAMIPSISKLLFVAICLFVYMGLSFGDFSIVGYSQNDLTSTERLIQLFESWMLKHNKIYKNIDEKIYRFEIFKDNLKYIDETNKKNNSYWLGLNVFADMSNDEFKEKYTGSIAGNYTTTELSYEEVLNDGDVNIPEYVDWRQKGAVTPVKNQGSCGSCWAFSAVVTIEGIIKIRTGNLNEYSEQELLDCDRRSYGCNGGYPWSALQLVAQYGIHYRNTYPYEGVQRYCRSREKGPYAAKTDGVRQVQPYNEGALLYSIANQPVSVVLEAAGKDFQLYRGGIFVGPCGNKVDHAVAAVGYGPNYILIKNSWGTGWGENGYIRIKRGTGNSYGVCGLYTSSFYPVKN
Matrix metalloproteinase-9, sequence (P14780 whole entry): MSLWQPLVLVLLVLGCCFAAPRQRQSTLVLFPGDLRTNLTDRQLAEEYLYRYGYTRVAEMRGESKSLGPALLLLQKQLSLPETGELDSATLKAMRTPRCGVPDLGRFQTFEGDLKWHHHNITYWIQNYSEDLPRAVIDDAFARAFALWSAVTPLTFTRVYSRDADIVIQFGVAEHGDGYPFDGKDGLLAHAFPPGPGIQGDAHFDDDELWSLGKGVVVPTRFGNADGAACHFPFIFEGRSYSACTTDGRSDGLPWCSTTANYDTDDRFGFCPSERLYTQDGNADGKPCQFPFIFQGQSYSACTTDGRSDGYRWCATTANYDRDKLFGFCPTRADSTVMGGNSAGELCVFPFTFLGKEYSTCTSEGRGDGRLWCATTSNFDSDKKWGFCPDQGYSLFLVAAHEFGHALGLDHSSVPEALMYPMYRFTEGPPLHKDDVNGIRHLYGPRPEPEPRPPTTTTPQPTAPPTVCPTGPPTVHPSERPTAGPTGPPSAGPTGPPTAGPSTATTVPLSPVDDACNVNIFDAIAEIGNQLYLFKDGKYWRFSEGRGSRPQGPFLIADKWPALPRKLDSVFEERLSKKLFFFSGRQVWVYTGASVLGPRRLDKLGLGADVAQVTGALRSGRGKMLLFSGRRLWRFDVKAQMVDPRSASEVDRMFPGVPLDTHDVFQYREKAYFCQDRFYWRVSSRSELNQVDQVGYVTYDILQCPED
Procathepsin L, sequence (P07711 whole entry): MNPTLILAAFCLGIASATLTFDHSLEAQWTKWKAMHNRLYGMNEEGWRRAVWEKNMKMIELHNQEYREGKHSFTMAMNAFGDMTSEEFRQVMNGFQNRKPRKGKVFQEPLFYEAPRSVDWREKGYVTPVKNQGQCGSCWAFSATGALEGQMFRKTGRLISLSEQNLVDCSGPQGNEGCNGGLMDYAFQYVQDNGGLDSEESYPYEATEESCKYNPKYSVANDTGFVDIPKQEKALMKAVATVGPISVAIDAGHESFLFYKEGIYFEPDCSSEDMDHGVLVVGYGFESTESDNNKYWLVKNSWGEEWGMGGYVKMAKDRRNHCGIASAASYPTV
Plasmepsin I, sequence (P39898 whole entry): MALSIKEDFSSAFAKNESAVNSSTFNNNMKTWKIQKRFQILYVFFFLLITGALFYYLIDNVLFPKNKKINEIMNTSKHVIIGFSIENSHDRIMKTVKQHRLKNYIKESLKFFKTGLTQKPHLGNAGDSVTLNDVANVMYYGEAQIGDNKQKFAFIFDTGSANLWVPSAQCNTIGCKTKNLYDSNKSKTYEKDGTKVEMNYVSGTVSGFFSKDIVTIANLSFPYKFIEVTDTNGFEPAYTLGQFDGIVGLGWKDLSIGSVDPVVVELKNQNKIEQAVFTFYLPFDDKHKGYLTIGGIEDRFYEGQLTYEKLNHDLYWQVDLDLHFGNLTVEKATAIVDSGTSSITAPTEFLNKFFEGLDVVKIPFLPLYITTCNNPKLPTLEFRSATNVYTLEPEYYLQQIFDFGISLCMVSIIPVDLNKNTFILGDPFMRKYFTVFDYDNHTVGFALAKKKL

For `CC(C)C[C@H](NC(=O)OCc1ccccc1)C(=O)NCC(=O)CNC(=O)[C@H](CC(C)C)NC(=O)OCc1ccccc1`, the Ki on Cathepsin B was 1300 nM; at Procathepsin L it was 340 nM; on Papain, more than 10000 nM.

The Cmax is the maximum level reached in the sampled fluid or tissue. `COc1cc(C(C)C)c2c(c1)S(=O)(=O)N(COC(=O)c1c(Cl)ccc(OCCN3CCOCC3)c1Cl)C2=O`: in [1], the peak level (Cmax) was 470 ng/mL.

As usually defined, the IC50 is the midpoint of a concentration-inhibition curve. Low readings indicate greater potency, high ones weaker potency. By inhibition is commonly meant the change of the read-out against control, counted positive when it falls. A high value points to strong suppression. Turning to `CCCCC(O)[C@H](C)C[C@H](O)[C@H](CC1CCCCC1)NC(=O)[C@H](CC(C)C)NC(=O)[C@H](Cc1ccccc1)NC(=O)OC(C)(C)C` (stereo not given in full), the IC50 was 500 nM against Plasmepsin I and 5000 nM in data set [3]. Moreover, the inhibition in data set [2] stood at 22%.

On to `CC1CNc2c(cccc2S(=O)(=O)N[C@@H](CCCNC(=N)N)C(=O)N2CC[C@@H](C)C[C@@H]2C(=O)O)C1` (stereo not given in full) [ARGATROBAN], for which the T1/2 in the data set listed under Homo sapiens was found to be 40 h.

Consider `O=C1C[C@H](NC(=O)[C@@H]2CCC[C@@H]3CCC[C@H](NC(=O)OCc4ccccc4)C(=O)N32)C(O)O1` (stereo not given in full), for which the half-maximal inhibitory concentration (IC50) on Caspase-3 is more than 10000 nM; on Caspase-1 it was 36 nM.

A word on the logP: it is the decadic logarithm of the partition coefficient of the neutral form, usually between octanol and water. For the compound `COc1ccc(CCN(C[C@H](O)[C@H](Cc2ccccc2)NC(=O)COc2cccc(Cl)c2)C(=O)C2CCNCC2)cc1`, in data set [4], the Ki was found to be 4.3 nM. Also, in [5], the logP was determined as 3.71.

The term EC50 denotes the concentration that produces a half-maximal response. Read a low EC50 as a more potent agent. `CCOC(=O)/C=C/[C@H](CCC(N)=O)NC(=O)[C@H](Cc1ccc(C)cc1)NC(=O)[C@@H](NC(=O)SC1CCCC1)C(C)(C)C` had a concentration for a half-maximal effect (EC50) in data set [6] of 56 nM.

In the case of `CN1C(=O)N(C[C@H](C(=O)NO)[C@@H](CC2CCCC2)C(=O)N2CCCCC2)C(=O)C1(C)C`, the values for the Ki (on Neutrophil collagenase; in data set [7]; in data set [8]) were 4 nM, 154 nM and 59 nM, respectively.

Turning to `CCCCNC(=O)C[C@H](O)[C@H](CC(C)C)NC(=O)[C@@H](NC(=O)Cc1ccc2ccccc2c1)C(C)CC` (stereo not given in full), the half-maximal inhibitory concentration (IC50) at Plasmepsin II was 50 nM; against Cathepsin D, 320 nM.

As to `C#CCSC[C@H](C(=O)NO)[C@@H](CC(C)C)C(=O)N[C@@H](Cc1ccccc1)C(=O)NC`, the inhibition in data set [9] came out at 83%. This compound also registered a half-maximal inhibitory concentration (IC50) in data set [10] of more than 10000 nM.

The values above are taken from ChEMBL document CHEMBL1133572, “Protease inhibitors: current status and future prospects” (J Med Chem, 2000).
